# Reference: ChEMBL document CHEMBL5518186, “Discovery of the cereblon-recruiting tubulin PROTACs effective in overcoming Taxol resistance in vitro and in vivo” (Eur J Med Chem, 2024)
# Calls of active or inactive are those of the source. No cut-off for these calls is given here.
# Tests used:
# HeLa = assay: Antiproliferative activity against human HeLa cells incubated for 72 hrs; assay type: functional, cell-based
# U-937 = assay: Antiproliferative activity against human U-937 cells incubated for 72 hrs; assay type: functional, cell-based; settings: U-937, 72 h
# A549 = assay: Antiproliferative activity against human A549 cells incubated for 72 hrs; assay type: functional, cell-based; settings: A549, 72 h
# MCF7 = assay: Antiproliferative activity against human MCF7 cells incubated for 72 hrs; assay type: functional, cell-based; settings: MCF7, 72 h
# MGC-803 = assay: Antiproliferative activity against human MGC-803 cells incubated for 72 hrs; assay type: functional, cell-based; settings: MGC-803, 72 h
# HepG2 = assay: Antiproliferative activity against human HepG2 cells incubated for 72 hrs; assay type: functional, cell-based; settings: HepG2, 72 h
# [1] = target: T1, Estrogen receptor (Homo sapiens) (UniProt P03372); assay: Induction of ER degradation (unknown origin)
# T1 sequence (whole entry): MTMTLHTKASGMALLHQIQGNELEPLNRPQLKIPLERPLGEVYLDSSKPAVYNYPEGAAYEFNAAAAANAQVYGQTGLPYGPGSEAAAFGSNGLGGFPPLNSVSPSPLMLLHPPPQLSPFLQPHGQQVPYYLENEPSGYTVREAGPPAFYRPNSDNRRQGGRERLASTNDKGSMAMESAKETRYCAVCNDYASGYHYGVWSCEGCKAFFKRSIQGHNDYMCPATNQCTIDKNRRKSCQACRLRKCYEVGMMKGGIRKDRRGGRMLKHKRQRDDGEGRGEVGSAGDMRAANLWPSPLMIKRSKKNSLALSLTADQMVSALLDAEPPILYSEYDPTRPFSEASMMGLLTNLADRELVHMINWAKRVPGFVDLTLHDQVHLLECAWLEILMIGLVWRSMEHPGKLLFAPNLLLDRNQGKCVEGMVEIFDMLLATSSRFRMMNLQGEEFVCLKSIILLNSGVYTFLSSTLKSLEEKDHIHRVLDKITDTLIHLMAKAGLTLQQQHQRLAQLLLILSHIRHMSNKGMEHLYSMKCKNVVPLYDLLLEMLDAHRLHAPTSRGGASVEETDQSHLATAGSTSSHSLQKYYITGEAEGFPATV
# [2] = target: T2, Protein cereblon-alpha tubulin (Homo sapiens) (UniProt P0DPH7+P68366+Q71U36+P68363+Q9BQE3+Q6PEY2+A6NHL2+Q9NY65+Q96SW2); assay: (§1) Protac activity at CRBN/alpha-tubulin in human A549 cells assessed as reduction in alpha-tubulin level incubated for 48 hrs by immunoblotting analysis; assay type: cell-based
# [3] = target: T3, Protein cereblon/Tubulin beta-3 chain (Homo sapiens, UniProt Q13509+Q96SW2); assay: Protac activity at CRBN/beta3-tubulin in human A549/Taxol cells assessed as reduction in beta3-tubulin level incubated for 48 hrs by immunoblotting analysis; assay type: cell-based
# [4] = target: T4, Protein cereblon/Tubulin beta (Homo sapiens) (UniProt P68371+Q9H4B7+Q13509+P04350+Q3ZCM7+P07437+Q13885+Q9BVA1+Q9BUF5+Q96SW2+A6NNZ2); assay: (§2) Protac activity at CRBN/beta-tubulin in human A549 cells assessed as reduction in beta-tubulin level incubated for 48 hrs by immunoblotting analysis; assay type: cell-based
# [5] = target: Protein cereblon/Tubulin beta; assay: as §2; assay type: cell-based
# [6] = target: T4, Protein cereblon/Tubulin beta (Homo sapiens); assay: (§3) Protac activity at CRBN/beta-tubulin in human A549/Taxol cells assessed as reduction in beta-tubulin level incubated for 48 hrs by immunoblotting analysis; assay type: cell-based
# [7] = target: Protein cereblon/Tubulin beta; assay: as §3; assay type: cell-based
# [8] = target: Protein cereblon-alpha tubulin; assay: (§4) Protac activity at CRBN/alpha-tubulin in human A549/Taxol cells assessed as reduction in alpha-tubulin level incubated for 48 hrs by immunoblotting analysis; assay type: cell-based
# [9] = target: T2, Protein cereblon-alpha tubulin (Homo sapiens); assay: as §4; assay type: cell-based
# [10] = target: T3, Protein cereblon/Tubulin beta-3 chain; assay: Protac activity at CRBN/beta3-tubulin in human A549 cells assessed as reduction in beta3-tubulin level incubated for 48 hrs by immunoblotting analysis; assay type: cell-based
# [11] = target: T4, Protein cereblon/Tubulin beta (Homo sapiens); assay: Protac activity at CRBN/beta-tubulin in human A549 cells assessed as reduction in beta-tubulin level at 0.01 to 1 uM incubated for 48 hrs by immunoblotting analysis; assay type: cell-based; settings: dose 0.01-1 µM
# [12] = target: T2, Protein cereblon-alpha tubulin (Homo sapiens); assay: Protac activity at CRBN/alpha-tubulin in human A549 cells assessed as reduction in alpha-tubulin level at 0.01 to 1 uM incubated for 48 hrs by immunoblotting analysis; assay type: cell-based; settings: dose 0.01-1 µM
# [13] = target: T3, Protein cereblon/Tubulin beta-3 chain; assay: Protac activity at CRBN/beta3-tubulin in human A549 cells assessed as reduction in beta3-tubulin level at 0.01 to 1 uM incubated for 48 hrs by immunoblotting analysis; assay type: cell-based; settings: dose 0.01-1 µM
# Target sequence in this assay (Q13509 whole entry, looked up): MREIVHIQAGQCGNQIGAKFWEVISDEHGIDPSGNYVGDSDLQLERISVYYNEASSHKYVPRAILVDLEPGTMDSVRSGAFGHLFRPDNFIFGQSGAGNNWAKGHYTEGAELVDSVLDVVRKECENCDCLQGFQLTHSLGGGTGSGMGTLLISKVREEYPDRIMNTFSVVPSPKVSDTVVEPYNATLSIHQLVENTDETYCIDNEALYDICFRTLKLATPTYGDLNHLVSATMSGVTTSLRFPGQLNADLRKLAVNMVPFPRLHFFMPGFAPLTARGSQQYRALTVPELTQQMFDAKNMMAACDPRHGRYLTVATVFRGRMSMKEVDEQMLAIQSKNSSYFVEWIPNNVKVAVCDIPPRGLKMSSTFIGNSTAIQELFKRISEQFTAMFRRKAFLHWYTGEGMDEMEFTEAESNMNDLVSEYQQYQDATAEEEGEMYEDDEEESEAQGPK
# Target sequence in this assay (Q96SW2 whole entry, looked up): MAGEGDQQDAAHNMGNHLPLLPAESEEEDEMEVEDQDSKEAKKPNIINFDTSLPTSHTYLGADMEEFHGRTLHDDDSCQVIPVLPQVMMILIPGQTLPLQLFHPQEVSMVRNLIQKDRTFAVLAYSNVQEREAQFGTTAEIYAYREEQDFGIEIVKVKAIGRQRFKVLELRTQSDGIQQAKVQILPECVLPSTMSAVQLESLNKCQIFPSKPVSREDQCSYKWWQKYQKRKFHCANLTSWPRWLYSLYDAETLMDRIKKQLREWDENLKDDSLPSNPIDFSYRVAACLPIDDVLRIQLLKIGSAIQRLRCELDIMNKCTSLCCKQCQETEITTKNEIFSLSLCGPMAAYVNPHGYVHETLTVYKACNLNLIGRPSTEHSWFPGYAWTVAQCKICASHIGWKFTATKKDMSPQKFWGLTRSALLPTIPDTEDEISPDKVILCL
# [14] = target: Protein cereblon-alpha tubulin; assay: as §1; assay type: cell-based
Structure (SMILES),IC50 (HeLa),IC50 (U-937),IC50 (A549),IC50 (MCF7),IC50 (MGC-803),IC50 (HepG2),further results
COc1ccc(/C=C\c2cc(OC)c(OC)c(OC)c2)cc1OCc1cn(CCCCC(=O)Nc2cccc3c2C(=O)N(C2CCC(=O)NC2=O)C3=O)nn1 (centres undefined),> 5000 nM,1620 nM,> 5000 nM,4060 nM,> 5000 nM,> 5000 nM,–
COc1ccc(/C=C\c2cc(OC)c(OC)c(OC)c2)cc1OC(=O)CCCN1C(=O)CCC(N2Cc3c(N)cccc3C2=O)C1=O (centres undefined),> 5000 nM,> 5000 nM,> 5000 nM,> 5000 nM,> 5000 nM,> 5000 nM,–
COc1ccc(/C=C\c2cc(OC)c(OC)c(OC)c2)cc1OC(=O)CN1C(=O)CCC(N2Cc3c(N)cccc3C2=O)C1=O (centres undefined),> 5000 nM,> 5000 nM,> 5000 nM,> 5000 nM,> 5000 nM,> 5000 nM,–
COc1ccc(/C=C\c2cc(OC)c(OC)c(OC)c2)cc1OC(=O)CCCCCN1C(=O)CCC(N2Cc3c(N)cccc3C2=O)C1=O (centres undefined),> 5000 nM,> 5000 nM,> 5000 nM,> 5000 nM,> 5000 nM,> 5000 nM,–
COc1ccc(/C=C\c2cc(OC)c(OC)c(OC)c2)cc1OC(=O)CCCCCOCCc1cn(CCCC(=O)Nc2cccc3c2C(=O)N(C2CCC(=O)NC2=O)C3=O)nn1 (centres undefined),1900 nM,> 5000 nM,1830 nM,2380 nM,1530 nM,2300 nM,–
COc1ccc(/C=C\c2cc(OC)c(OC)c(OC)c2)cc1OCc1cn(CCCCCC(=O)Nc2cccc3c2C(=O)N(C2CCC(=O)NC2=O)C3=O)nn1 (centres undefined),> 5000 nM,> 5000 nM,> 5000 nM,> 5000 nM,> 5000 nM,> 5000 nM,–
COc1ccc(/C=C\c2cc(OC)c(OC)c(OC)c2)cc1OC(=O)CCCCN1C(=O)CCC(N2Cc3c(N)cccc3C2=O)C1=O (centres undefined),> 5000 nM,> 5000 nM,> 5000 nM,> 5000 nM,> 5000 nM,> 5000 nM,–
COc1ccc(/C=C\c2cc(OC)c(OC)c(OC)c2)cc1OC(=O)CCCOCCc1cn(CCCCCC(=O)Nc2cccc3c2C(=O)N(C2CCC(=O)NC2=O)C3=O)nn1 (centres undefined),> 5000 nM,> 5000 nM,3900 nM,2980 nM,3100 nM,2880 nM,–
COc1ccc(/C=C\c2cc(OC)c(OC)c(OC)c2)cc1OC(=O)CCCCOCCc1cn(CCCCC(=O)Nc2cccc3c2C(=O)N(C2CCC(=O)NC2=O)C3=O)nn1 (centres undefined),1510 nM,800 nM,374 nM,263 nM,175 nM,213 nM,–
O=C1CC[C@H](N2Cc3cc(N4CCN(CC5CCN(c6ccc([C@@H]7c8ccc(O)cc8CC[C@@H]7c7ccccc7)cc6)CC5)CC4)ccc3C2=O)C(=O)N1,–,–,–,–,–,–,Activity [1]: < 89%
COc1ccc(/C=C\c2cc(OC)c(OC)c(OC)c2)cc1OC(=O)CCCCCOCCc1cn(CCCCC(=O)Nc2cccc3c2C(=O)N(C2CCC(=O)NC2=O)C3=O)nn1 (centres undefined),> 5000 nM,> 5000 nM,2440 nM,2350 nM,1400 nM,1920 nM,–
COc1ccc(/C=C\c2cc(OC)c(OC)c(OC)c2)cc1OC(=O)CCCCCOCCc1cn(CCCCCC(=O)Nc2cccc3c2C(=O)N(C2CCC(=O)NC2=O)C3=O)nn1 (centres undefined),> 5000 nM,> 5000 nM,1760 nM,2300 nM,1790 nM,1990 nM,–
COc1ccc(/C=C\c2cc(OC)c(OC)c(OC)c2)cc1OC(=O)CCNc1cccc2c1C(=O)N(C1CCC(=O)NC1=O)C2=O (centres undefined),> 5000 nM,> 5000 nM,> 5000 nM,> 5000 nM,> 5000 nM,> 5000 nM,–
COc1ccc(/C=C\c2cc(OC)c(OC)c(OC)c2)cc1OC(=O)CCCCCNc1cccc2c1C(=O)N(C1CCC(=O)NC1=O)C2=O (centres undefined),23 nM,6 nM,19 nM,17 nM,9 nM,7 nM,Activity [2]: Dose-Dependent Effect; Activity [3]: Dose-Dependent Effect; Activity [4]: Dose-Dependent Effect; DC50 [5]: 165 nM; Activity [6]: Dose-Dependent Effect; DC50 [7]: 52 nM; DC50 [8]: 114 nM; Activity [9]: Dose-Dependent Effect; Activity [10]: Dose-Dependent Effect; DC50 [10]: 294 nM; Activity [11]: Active; Activity [12]: Active; Activity [13]: Active
COc1ccc(/C=C\c2cc(OC)c(OC)c(OC)c2)cc1OC(=O)CCCCOCCc1cn(CCCC(=O)Nc2cccc3c2C(=O)N(C2CCC(=O)NC2=O)C3=O)nn1 (centres undefined),1270 nM,4320 nM,544 nM,247 nM,61 nM,128 nM,–
COc1ccc(/C=C\c2cc(OC)c(OC)c(OC)c2)cc1OC(=O)CCCOCCc1cn(CCCC(=O)Nc2cccc3c2C(=O)N(C2CCC(=O)NC2=O)C3=O)nn1 (centres undefined),> 5000 nM,> 5000 nM,3750 nM,4230 nM,2350 nM,3120 nM,–
COc1ccc(/C=C\c2cc(OC)c(OC)c(OC)c2)cc1OC(=O)CCN1C(=O)CCC(N2Cc3c(N)cccc3C2=O)C1=O (centres undefined),> 5000 nM,> 5000 nM,> 5000 nM,> 5000 nM,> 5000 nM,> 5000 nM,–
COc1ccc(/C=C\c2cc(OC)c(OC)c(OC)c2)cc1OC(=O)CCCCNc1cccc2c1C(=O)N(C1CCC(=O)NC1=O)C2=O (centres undefined),23 nM,22 nM,12 nM,17 nM,8 nM,6 nM,DC50 [14]: 883 nM; Activity [2]: Dose-Dependent Effect; Activity [3]: Dose-Dependent Effect; DC50 [3]: 18 nM; Activity [4]: Dose-Dependent Effect; DC50 [5]: 35 nM; Activity [6]: Dose-Dependent Effect; DC50 [7]: 9 nM; DC50 [8]: 105 nM; Activity [9]: Dose-Dependent Effect; Activity [10]: Dose-Dependent Effect; Activity [11]: Active; Activity [12]: Active; Activity [13]: Active
COc1ccc(/C=C\c2cc(OC)c(OC)c(OC)c2)cc1OC(=O)CNc1cccc2c1C(=O)N(C1CCC(=O)NC1=O)C2=O (centres undefined),> 5000 nM,> 5000 nM,> 5000 nM,> 5000 nM,> 5000 nM,> 5000 nM,–
COc1ccc(/C=C\c2cc(OC)c(OC)c(OC)c2)cc1OC(=O)CCCOCCc1cn(CCCCC(=O)Nc2cccc3c2C(=O)N(C2CCC(=O)NC2=O)C3=O)nn1 (centres undefined),> 5000 nM,> 5000 nM,> 5000 nM,> 5000 nM,> 5000 nM,> 5000 nM,–
COc1ccc(/C=C\c2cc(OC)c(OC)c(OC)c2)cc1OC(=O)CCCCOCCc1cn(CCCCCC(=O)Nc2cccc3c2C(=O)N(C2CCC(=O)NC2=O)C3=O)nn1 (centres undefined),1310 nM,8590 nM,466 nM,417 nM,195 nM,242 nM,–
COc1ccc(/C=C\c2cc(OC)c(OC)c(OC)c2)cc1OCc1cn(CCCC(=O)Nc2cccc3c2C(=O)N(C2CCC(=O)NC2=O)C3=O)nn1 (centres undefined),> 5000 nM,> 5000 nM,2760 nM,> 5000 nM,1240 nM,1600 nM,–
